The results in this text go back to patent publication US12404250B2, “PARP inhibitors for treating cancer and asthma” (Oregon Health & Science University, priority 2018, dated 2025).

Where only a bound is given, the exact number is not on record here.

One test deals with PARP 1 (Homo sapiens, UniProt P09874). The test is described as follows: In vitro IC50, PARP1. Format: biochemical. The conditions noted are these: SEM from a minimum of three dose-response experiments.
For a further test, the target named is PARP 2 (Homo sapiens, UniProt Q9UGN5). The test is described as follows: In vitro IC50, PARP2. The class given is biochemical. The settings on record: SEM from a minimum of three dose-response experiments.
A further test has as its target T1, PARP 3 (Homo sapiens, UniProt Q9Y6F1).
T1 sequence (Q9Y6F1 1-533): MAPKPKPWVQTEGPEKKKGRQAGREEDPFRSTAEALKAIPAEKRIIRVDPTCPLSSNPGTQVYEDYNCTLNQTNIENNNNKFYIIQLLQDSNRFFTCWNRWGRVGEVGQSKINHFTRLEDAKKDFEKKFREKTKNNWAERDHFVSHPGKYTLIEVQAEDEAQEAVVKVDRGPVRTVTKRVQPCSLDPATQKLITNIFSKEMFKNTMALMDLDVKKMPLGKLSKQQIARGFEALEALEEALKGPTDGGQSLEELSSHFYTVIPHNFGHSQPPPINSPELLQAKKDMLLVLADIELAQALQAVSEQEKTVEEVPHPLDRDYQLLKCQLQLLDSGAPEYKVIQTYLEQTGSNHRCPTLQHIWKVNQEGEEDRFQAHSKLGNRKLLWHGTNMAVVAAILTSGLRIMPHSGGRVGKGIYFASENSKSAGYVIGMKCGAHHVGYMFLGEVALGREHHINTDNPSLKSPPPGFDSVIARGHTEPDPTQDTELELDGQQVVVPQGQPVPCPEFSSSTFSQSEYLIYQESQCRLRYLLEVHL
Kind of test: In vitro IC50, PARP3. The class given is biochemical. The conditions noted are these: SEM from a minimum of three dose-response experiments.

The target of the next test is T2, PARP5 bcat (Homo sapiens, UniProt Q9H2K2).
T2 construct: bcat
Kind of test: In vitro IC50, PARP5bcat. The class given is biochemical. The conditions noted are these: SEM from a minimum of three dose-response experiments.

The target in the next test is T3, PARP10cat (Homo sapiens, UniProt Q53GL7).
T3 construct: bcat; cat; PARP11
T3 sequence (Q53GL7 806-1025 limits assumed): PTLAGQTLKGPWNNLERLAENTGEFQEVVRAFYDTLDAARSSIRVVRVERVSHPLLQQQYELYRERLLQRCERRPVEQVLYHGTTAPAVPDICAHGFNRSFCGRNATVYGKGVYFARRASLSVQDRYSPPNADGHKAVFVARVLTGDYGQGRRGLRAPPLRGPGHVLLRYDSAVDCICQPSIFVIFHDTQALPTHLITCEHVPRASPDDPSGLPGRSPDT
Kind of test: In vitro IC50, PARP10cat. The conditions noted are these: SEM from a minimum of three dose-response experiments. Format: biochemical.

A further test concerns the target T4, PARP11 (Homo sapiens, UniProt Q9NR21).
T4 sequence (Q9NR21 1-338): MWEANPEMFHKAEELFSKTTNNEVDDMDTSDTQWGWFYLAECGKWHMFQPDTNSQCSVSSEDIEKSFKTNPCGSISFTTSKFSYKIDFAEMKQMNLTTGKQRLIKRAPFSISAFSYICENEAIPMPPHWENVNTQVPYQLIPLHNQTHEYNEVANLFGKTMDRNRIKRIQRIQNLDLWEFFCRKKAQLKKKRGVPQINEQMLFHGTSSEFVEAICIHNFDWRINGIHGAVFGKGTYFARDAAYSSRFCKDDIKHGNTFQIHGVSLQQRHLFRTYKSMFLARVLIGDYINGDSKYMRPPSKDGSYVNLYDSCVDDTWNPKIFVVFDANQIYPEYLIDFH
Kind of test: In vitro IC50, PARP11 (plate assay, MARylation of SRPK2 and NXF1). Format: biochemical. The settings on record: SEM from a minimum of three dose-response experiments. From the text:
Curves generated using Prism 7 (Graph Pad); error bars indicate ±SEM from at least two replicates.

A further test has as its target T5, PARP14 cat-wwe (Homo sapiens, UniProt Q460N5).
T5 construct: PARP14 cat-wwe; no borders given for the assay protein
T5 sequence (Q460N5 1523-1801 limits assumed): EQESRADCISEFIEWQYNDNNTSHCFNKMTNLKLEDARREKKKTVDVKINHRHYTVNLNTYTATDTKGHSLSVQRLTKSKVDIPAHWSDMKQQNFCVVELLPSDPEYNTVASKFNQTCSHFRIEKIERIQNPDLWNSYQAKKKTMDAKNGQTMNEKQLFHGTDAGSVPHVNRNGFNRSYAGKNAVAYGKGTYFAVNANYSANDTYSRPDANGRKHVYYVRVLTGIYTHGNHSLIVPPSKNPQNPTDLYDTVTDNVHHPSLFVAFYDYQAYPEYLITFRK
The test is described as follows: In vitro IC50, PARP14 cat-wwe. The class given is biochemical. The settings on record: SEM from a minimum of three dose-response experiments.

In a further test the target is T6, PARP15 cat (Homo sapiens, UniProt Q460N3).
T6 construct: cat-wwe; cat
T6 sequence (Q460N3 482-678 limits assumed): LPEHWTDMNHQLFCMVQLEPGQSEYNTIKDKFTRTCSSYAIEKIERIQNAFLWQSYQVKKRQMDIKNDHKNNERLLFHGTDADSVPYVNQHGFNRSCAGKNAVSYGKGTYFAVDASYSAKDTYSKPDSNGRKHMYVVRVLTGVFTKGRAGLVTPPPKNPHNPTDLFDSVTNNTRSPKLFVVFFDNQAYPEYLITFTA
Kind of test: In vitro IC50, PARP15 cat. Format: biochemical. The settings on record: SEM from a minimum of three dose-response experiments.

Another test concerns the target T7, PARP1/2 (Homo sapiens, UniProt P09874).
T7 construct: expressed in transfected cells; host or cells: HEK 293T
Kind of test: H2O2-stimulated PARP1/2 activity in HEK 293T cells (Western blot). The class given is cell-based. The conditions noted are these: H2O2 500 μM for 15 min, Western blot with ADPr binding reagent. On the technique in general: In western blotting, separated proteins are transferred to a membrane and probed.

T2 sequence (Q9H2K2 959-1164): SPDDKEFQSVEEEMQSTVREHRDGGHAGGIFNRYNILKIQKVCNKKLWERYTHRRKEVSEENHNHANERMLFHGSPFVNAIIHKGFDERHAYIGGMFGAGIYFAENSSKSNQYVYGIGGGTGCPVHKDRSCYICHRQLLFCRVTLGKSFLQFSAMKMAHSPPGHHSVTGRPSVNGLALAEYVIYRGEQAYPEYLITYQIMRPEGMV
Chain of PARP 2 (Q9UGN5 whole entry): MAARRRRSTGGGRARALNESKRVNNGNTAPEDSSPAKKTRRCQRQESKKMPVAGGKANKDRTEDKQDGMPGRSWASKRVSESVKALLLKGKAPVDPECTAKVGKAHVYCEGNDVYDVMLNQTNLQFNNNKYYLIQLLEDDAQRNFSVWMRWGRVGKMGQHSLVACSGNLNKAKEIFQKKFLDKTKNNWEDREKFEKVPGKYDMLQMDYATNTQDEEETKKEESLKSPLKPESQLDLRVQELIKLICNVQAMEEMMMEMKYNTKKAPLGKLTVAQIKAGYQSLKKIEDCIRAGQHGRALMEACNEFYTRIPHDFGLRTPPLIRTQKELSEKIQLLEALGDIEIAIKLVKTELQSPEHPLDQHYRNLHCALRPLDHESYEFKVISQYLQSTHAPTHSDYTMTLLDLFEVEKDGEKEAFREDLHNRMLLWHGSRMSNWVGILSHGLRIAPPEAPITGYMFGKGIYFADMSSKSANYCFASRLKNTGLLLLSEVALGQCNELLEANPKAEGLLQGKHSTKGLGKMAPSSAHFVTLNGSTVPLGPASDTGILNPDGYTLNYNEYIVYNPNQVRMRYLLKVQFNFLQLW
Chain of PARP 1 (P09874 whole entry): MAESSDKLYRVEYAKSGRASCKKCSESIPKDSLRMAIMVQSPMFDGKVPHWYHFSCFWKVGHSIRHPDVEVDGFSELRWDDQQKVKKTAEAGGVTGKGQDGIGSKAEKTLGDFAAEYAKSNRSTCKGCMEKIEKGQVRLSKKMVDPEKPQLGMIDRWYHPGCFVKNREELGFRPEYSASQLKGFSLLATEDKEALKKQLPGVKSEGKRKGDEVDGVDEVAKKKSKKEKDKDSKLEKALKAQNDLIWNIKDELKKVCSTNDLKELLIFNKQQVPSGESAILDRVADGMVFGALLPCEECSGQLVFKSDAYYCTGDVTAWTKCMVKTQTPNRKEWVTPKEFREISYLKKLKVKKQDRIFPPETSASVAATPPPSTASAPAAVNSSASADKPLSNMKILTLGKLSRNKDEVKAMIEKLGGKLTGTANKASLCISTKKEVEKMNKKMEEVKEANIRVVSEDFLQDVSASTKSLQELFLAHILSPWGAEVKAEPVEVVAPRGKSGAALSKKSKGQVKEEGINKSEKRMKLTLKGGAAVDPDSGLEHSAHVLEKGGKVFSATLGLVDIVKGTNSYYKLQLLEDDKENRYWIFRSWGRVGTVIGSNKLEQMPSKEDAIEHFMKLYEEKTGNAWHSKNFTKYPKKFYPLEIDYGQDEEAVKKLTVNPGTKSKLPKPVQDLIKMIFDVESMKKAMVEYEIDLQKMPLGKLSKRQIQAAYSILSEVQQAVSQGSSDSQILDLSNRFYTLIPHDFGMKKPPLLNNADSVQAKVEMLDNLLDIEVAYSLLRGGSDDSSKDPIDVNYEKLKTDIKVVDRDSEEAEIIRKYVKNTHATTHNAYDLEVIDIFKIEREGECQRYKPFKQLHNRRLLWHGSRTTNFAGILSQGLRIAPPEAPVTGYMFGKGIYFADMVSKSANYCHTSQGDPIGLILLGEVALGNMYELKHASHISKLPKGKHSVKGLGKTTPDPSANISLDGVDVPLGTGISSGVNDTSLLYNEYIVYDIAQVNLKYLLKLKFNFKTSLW
T7 sequence (P09874 2-1014): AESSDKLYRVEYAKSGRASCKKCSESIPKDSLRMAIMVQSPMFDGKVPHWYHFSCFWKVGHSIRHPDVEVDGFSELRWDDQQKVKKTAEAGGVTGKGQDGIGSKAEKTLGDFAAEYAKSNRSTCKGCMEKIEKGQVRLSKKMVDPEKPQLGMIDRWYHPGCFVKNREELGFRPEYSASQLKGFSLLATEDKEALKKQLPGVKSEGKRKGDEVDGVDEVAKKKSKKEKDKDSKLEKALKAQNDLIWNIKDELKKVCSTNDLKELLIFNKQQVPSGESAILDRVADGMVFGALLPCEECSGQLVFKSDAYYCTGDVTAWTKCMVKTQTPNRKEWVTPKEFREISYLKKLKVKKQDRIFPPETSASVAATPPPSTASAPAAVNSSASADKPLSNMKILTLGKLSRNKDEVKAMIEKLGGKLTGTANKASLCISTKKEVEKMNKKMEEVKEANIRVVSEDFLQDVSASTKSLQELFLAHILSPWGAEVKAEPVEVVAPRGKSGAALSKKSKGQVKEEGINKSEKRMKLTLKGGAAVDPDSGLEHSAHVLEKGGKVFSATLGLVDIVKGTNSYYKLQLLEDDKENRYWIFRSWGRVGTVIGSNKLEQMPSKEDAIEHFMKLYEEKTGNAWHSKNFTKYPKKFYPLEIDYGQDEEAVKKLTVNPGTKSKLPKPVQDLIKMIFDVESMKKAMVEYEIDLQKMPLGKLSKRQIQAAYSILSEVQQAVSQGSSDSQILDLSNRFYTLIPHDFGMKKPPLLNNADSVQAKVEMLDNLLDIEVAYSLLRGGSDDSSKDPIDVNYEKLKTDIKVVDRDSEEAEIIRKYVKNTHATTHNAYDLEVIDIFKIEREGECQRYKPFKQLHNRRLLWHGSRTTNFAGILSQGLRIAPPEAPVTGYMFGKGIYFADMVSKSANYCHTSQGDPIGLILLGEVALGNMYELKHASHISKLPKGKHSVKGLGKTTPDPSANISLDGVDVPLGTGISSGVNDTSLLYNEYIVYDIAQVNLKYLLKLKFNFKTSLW
Procedure for PARP1/2: Lysates were prepared and PAR/MARylation was analyzed by Western blot with an ADP-ribose (ADPr) binding reagent. Blot was also probed with antibodies for GFP and actin. The band of interest represents auto-PARylated GFP-PARP1. […] Lysates were prepared and PAR/MARylation was analyzed by Western blot with an ADP-ribose (ADPr) binding reagent. Blot was also probed with antibodies for GFP and actin.
Lysates were prepared and PAR/MARylation was analyzed by Western blot with an ADP-ribose (ADPr) binding reagent. Blot was also probed with antibodies for GFP and actin. The band of interest represents auto-PARylated GFP-PARP1.

Usually IC50 stands for the concentration that inhibits the measured activity by half. In the case of `Cc1ccc2c(=O)[nH]c(CSc3ncnc4nc[nH]c34)nc2c1C` [ITK2, 2-(((7H-purin-6-yl)thio)methyl)-7,8-dimethylquinazolin-4(3H)-one], the IC50 is more than 30 µM against PARP 1; more than 30 µM against PARP 2; more than 30 µM against PARP 3; more than 10 µM against PARP5 bcat; 32.8 ± 3.6 µM against PARP10cat; 4.52 ± 1.4 µM against PARP11. Further, the IC50 at PARP14 cat-wwe is 7.87 ± 0.2 µM; against PARP15 cat it was more than 30 µM.
In the case of `C#Cc1ccc2c(=O)[nH]c(CSc3ccc(C(=O)O)cc3)nc2c1C` [ITK5, 4-(((7-ethynyl-8-methyl-4-oxo-3,4-dihydroquinazolin-2-yl)methyl)thio)benzoic acid], the IC50 against PARP 1 is more than 30 µM; at PARP 2, more than 30 µM; on PARP 3, more than 30 µM; against PARP5 bcat, more than 10 µM; against PARP10cat, 5.4 ± 0.17 µM; against PARP11 it was 1.62 ± 0.33 µM. Moreover, the IC50 amounted to 10.8 ± 0.75 µM against PARP14 cat-wwe and 4.03 ± 0.77 µM against PARP15 cat.
As to `C[C@]1(c2nc3c(C(N)=O)cccc3[nH]2)CCCN1` [veliparib, reference compound], the “Inhibition of H2O2-mediated PARP1 PARylation (PARP½ activity) in cells” value on PARP1/2 is recorded as “completely inhibits”.
`Cc1ccc2c(=O)[nH]c(CSc3ncccn3)nc2c1C` [ITK1, 7,8-dimethyl-2-((pyrimidin-2-ylthio)methyl)quinazolin-4(3H)-one]: the IC50 at PARP 1 was more than 30 µM; against PARP 2, 17.4 ± 3.3 µM; against PARP 3, more than 30 µM; at PARP5 bcat, more than 10 µM; against PARP10cat, 19.7 ± 0.95 µM; on PARP11, 0.55 ± 0.11 µM. Further, the values for the IC50 against PARP14 cat-wwe and against PARP15 cat were 8.55 ± 0.8 µM and more than 30 µM, respectively.
For `Cc1ccc2c(=O)[nH]c(CSc3nnc(N)[nH]3)nc2c1C` [ITK3, 2-(((5-amino-4H-1,2,4-triazol-3-yl)thio)methyl)-7,8-dimethylquinazolin-4(3H)-one], the IC50 at PARP 1 is more than 30 µM; against PARP 2 it was more than 30 µM; against PARP 3, more than 30 µM; against PARP5 bcat, more than 10 µM; on PARP10cat, 27.9 ± 3.9 µM; on PARP11, 13.6 ± 1.4 µM. The IC50 against PARP14 cat-wwe was 6.73 ± 1.8 µM; against PARP15 cat, more than 30 µM.
Consider `CNCc1ccc(-c2[nH]c3cc(F)cc4c3c2CCNC4=O)cc1` [Rucaparib, reference compound], for which half-maximal inhibition against PARP11 (IC50) required 3.4 ± 0.5 µM.
As for `Cc1ccc2c(=O)[nH]c(CSc3ccc(C(=O)O)cc3)nc2c1C` [ITK4, 4-(((7,8-dimethyl-4-oxo-3,4-dihydroquinazolin-2-yl)methyl)thio)benzoic acid], the IC50 at PARP 1 was more than 30 µM; against PARP 2 it was 8.46 ± 1.4 µM; against PARP 3, more than 30 µM; against PARP5 bcat it was more than 10 µM; at PARP10cat, 9.29 ± 0.2 µM; against PARP11, 5.5 ± 0.8 µM. Besides, the IC50 was found to be 8.71 ± 0.8 µM at PARP14 cat-wwe and 6.85 ± 0.99 µM on PARP15 cat.
